According to ChEMBL document CHEMBL4428064, “Discovery and antiparasitic activity of AZ960 as a Trypanosoma brucei ERK8 inhibitor” (Bioorg Med Chem, 2016):

Experiments:
Trypanosoma brucei [1] = experiment: Antiparasitic activity against bloodstream form of Trypanosoma brucei 221 infected in mouse VSMC assessed as reduction in log10 RLU at 1 uM after 48 hrs by luciferase reporter gene assay; type: functional
Trypanosoma brucei [2] = experiment: Antiparasitic activity against bloodstream form of Trypanosoma brucei 221 infected in mouse VSMC assessed as reduction in parasitic proliferation after 48 hrs by cell titer-glo based assay; type: functional, organism-based; details: Trypanosoma brucei, 221, VSMC
Trypanosoma brucei [3] = experiment: Antiparasitic activity against bloodstream form of Trypanosoma brucei 221 infected in mouse VSMC assessed as parasitic proliferation at 1 uM after 48 hrs by luciferase reporter gene assay; type: functional
[4] = Inhibition of GST-tagged Trypanosoma brucei ERK8 expressed in Escherichia coli using recombinant myelin basic protein as substrate after 30 mins in presence of 32P-gamma-ATP by Michaelis-Menten analysis
INS1 = experiment: Cytotoxicity against rat INS-1 cells assessed as cell growth inhibition; type: cell-based
[5] = Selectivity ratio of IC50 for mouse vSMC to IC50 for bloodstream form of Trypanosoma brucei 221; type: toxicity; details: read-out: Ratio IC50
Trypanosoma brucei [6] = experiment: Inhibition of GST-tagged Trypanosoma brucei ERK8 autophosphorylation expressed in Escherichia coli using myelin basic protein as substrate after 30 mins in presence of 32P-gamma-ATP by SDS-PAGE based autoradiography
[7] = target: Tyrosine-protein kinase JAK2 (Homo sapiens, UniProt O60674, V617F); experiment: Inhibition of JAK2 V617F mutant (unknown origin) using L-Ahx-IPTSPITTTYFFFKKK-COOH as substrate in presence of ATP
Chain of Tyrosine-protein kinase JAK2 (O60674 whole entry V617F): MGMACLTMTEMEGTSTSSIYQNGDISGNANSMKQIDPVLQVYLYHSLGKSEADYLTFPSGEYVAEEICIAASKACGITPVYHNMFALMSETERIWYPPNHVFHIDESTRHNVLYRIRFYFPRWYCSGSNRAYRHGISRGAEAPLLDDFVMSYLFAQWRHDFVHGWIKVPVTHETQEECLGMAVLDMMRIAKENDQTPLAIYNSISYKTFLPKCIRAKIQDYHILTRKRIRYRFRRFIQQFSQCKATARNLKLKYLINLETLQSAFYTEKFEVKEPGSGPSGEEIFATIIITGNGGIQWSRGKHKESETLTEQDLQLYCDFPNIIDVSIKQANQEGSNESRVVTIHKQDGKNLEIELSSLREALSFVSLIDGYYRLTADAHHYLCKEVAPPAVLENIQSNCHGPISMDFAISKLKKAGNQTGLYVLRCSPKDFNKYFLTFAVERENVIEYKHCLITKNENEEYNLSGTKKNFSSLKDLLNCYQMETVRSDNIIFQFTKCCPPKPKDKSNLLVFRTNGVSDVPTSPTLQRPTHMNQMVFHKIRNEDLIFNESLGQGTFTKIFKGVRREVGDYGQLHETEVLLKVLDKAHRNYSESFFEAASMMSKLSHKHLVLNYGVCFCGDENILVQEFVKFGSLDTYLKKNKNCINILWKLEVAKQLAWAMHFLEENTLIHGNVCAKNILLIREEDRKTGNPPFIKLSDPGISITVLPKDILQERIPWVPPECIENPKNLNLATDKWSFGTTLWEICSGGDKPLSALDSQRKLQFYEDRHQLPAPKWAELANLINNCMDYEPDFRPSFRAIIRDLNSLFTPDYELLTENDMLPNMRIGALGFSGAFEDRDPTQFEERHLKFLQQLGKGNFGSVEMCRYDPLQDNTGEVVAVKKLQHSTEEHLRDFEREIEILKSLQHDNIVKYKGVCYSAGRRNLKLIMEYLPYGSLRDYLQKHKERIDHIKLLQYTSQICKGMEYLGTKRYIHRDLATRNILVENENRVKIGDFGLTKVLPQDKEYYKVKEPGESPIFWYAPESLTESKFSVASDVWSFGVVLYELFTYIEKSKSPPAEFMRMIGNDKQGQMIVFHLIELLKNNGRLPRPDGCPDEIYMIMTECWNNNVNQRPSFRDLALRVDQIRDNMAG

[8] = Selectivity ratio of IC50 for rat ins-1 cells to IC50 for bloodstream form of Trypanosoma brucei 221; type: toxicity; details: read-out: Ratio IC50
[9] = Cytotoxicity against mouse VSMC assessed as cell growth inhibition

SMILES | IC50 (Trypanosoma brucei [2]) [nM] | inhibition (Trypanosoma brucei [6]) [%] | reduction in log10 RLU (Trypanosoma brucei [1]) | Activity (Trypanosoma brucei [3]) [%] | other results
Nc1ccc(-c2ccc3ncc4ccc(=O)n(-c5cccc(C(F)(F)F)c5)c4c3c2)cn1 | 1000 |  | 2 | 0.6 | 
Cc1cc(Nc2nc(N[C@@H](C)c3ccc(F)cc3)c(C#N)cc2F)n[nH]1 | 120 | < 20 | 2 | 0.26 | Ki [4]: 1250 nM; IC50 (INS1; Rattus norvegicus, INS1): 10000 nM; inhibition (INH) (INS1; rat, ins1): Dose-dependent effect; selectivity ratio [5]: 208 to 210; Ki [7]: 0.45 nM; selectivity ratio [8]: 83 to 84; IC50 ([9]; Mus musculus, VSMC): 25000 nM; inhibition (INH) ([9]; mouse): Dose-dependent effect
O=C1c2ccccc2-c2n[nH]c3cccc1c23 | 570 |  | 2 | 0.26 | 
Cn1c(=O)n(-c2ccc(C(C)(C)C#N)cc2)c2c3cc(-c4cnc5ccccc5c4)ccc3ncc21 [DACTOLISIB] |  |  | 2 | 0.49 | 
CCc1cnn2c(NCc3ccc[n+]([O-])c3)cc(N3CCCC[C@H]3CCO)nc12 [DINACICLIB] | 80 |  | 2 | 1.13 | 
CCS(=O)(=O)Nc1ccc2c(c1)/C(=C(/Nc1ccc(CN3CCCCC3)cc1)c1ccccc1)C(=O)N2 [HESPERADIN] |  |  | 2 | 0.27 | 

Continued by falling IC50 (Trypanosoma brucei [2]), values first:

IC50 (Trypanosoma brucei [2]) [nM] | inhibition (Trypanosoma brucei [6]) [%] | SMILES | reduction in log10 RLU (Trypanosoma brucei [1]) | Activity (Trypanosoma brucei [3]) [%] | other results
950 |  | COc1ccc(-c2ccc3ncc4c(c3c2)n(-c2ccc(N3CCNCC3)c(C(F)(F)F)c2)c(=O)n4C)cn1 [BGT-226 FREE BASE] | 2 | 0.12 | 
610 | < 20 | CNC(=O)c1nn(C)c2c1C(C)(C)Cc1cnc(Nc3ccc(N4CCN(C)CC4)cc3)nc1-2 [MILCICLIB] | 2 | 0.58 | 
260 | < 20 | CC(=O)NCC(=O)N1[C@@H]2CC[C@H]1c1ccc(Nc3ncc(C(F)(F)F)c(NC4CCC4)n3)cc12 [PF-03814735] | 2 | 1.16 | 
210 | < 20 | Cc1ncc(-c2ccnc(Nc3ccc(S(C)(=O)=O)cc3)n2)n1C(C)C [AZD-5438] | 2 | 0.45 | 
120 |  | CC(C)(C)c1cnc(CSc2cnc(NC(=O)C3CCNCC3)s2)o1 [BMS-387032] | 2 | 0.36 | 
111 |  | COc1ncc(-c2ccc3nccc(-c4ccnnc4)c3c2)cc1NS(=O)(=O)c1ccc(F)cc1F [OMIPALISIB] | 2 | 0.21 | 
